Measured values reported in article PMC11374673, “Discovery of isoquinoline sulfonamides as allosteric gyrase inhibitors with activity against fluoroquinolone-resistant bacteria” (Nature Chemistry, 2024).
Values joined by “and” are separate entries in the source; they are usually repeats but may differ in a detail not shown here. Identical values can stand only once. “Also recorded” adds a separate entry of the source.

What was measured:
E. coli W3110 = assay: Checkerboard assay with PMBN; conditions: for Checkerboard well reading (growth): single wells (triplicate); for Checkerboard well reading (growth), Average values: average of 3 wells
HEK293T = assay: Cytotoxicity assay (MTT); assay type: cell-based, human; conditions: for MTT data (raw readout): HEK293T; for IC50: 24 h, MTT
Procedure, shortened: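 HEK293T cells, maintained at 37 °C and 7% CO2 in Dulbecco’s modified Eagle medium with GlutaMax, antibiotics and serum, were plated in clear 96-well plates in 100 µl medium containing 1% fetal bovine serum and left 24 h to attach. After 24 h compound exposure, MTT (0.40 mg ml^−1) was added for 2 h. Formazan was dissolved in 100 µl DMSO and absorbance measured at 570 nm. Background-corrected IC50 values came from variable-slope non-linear fits.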

HepG2 = assay: Cytotoxicity assay (MTT); assay type: cell-based, human; conditions: for IC50: MTT, 24 h

O=S(=O)(NC[C@H]1CC[C@@H](c2ccc(-c3ccc(F)nc3)cc2)N1)c1cccc2cnccc12 [LEI-801]
Checkerboard well reading (growth) (E. coli W3110; LEI-801 25 µM + PMBN 1 µM): 0.153 and 0.1529 and 0.1554 | Checkerboard well reading (growth), Average values (E. coli W3110; LEI-801 25 µM + PMBN 2 µM): 0.155 | Checkerboard well reading (growth) (E. coli W3110; LEI-801 25 µM + PMBN 2 µM): 0.1518 and 0.1536 and 0.1596 | Checkerboard well reading (growth), Average values (E. coli W3110; LEI-801 25 µM + PMBN 4 µM): 0.1451 | Checkerboard well reading (growth) (E. coli W3110; LEI-801 25 µM + PMBN 4 µM): 0.1525 and 0.1428 and 0.1399 | Checkerboard well reading (growth), Average values (E. coli W3110; LEI-801 25 µM + PMBN 8 µM): 0.1413 | Checkerboard well reading (growth) (E. coli W3110; LEI-801 25 µM + PMBN 8 µM): 0.1394 and 0.1427 and 0.1418 | Checkerboard well reading (growth), Average values (E. coli W3110; LEI-801 25 µM + PMBN 16 µM): 0.1492 | Checkerboard well reading (growth) (E. coli W3110; LEI-801 25 µM + PMBN 16 µM): 0.1486 and 0.1511 and 0.148 | Checkerboard well reading (growth), Average values (E. coli W3110; LEI-801 25 µM + PMBN 32 µM): 0.1528 | Checkerboard well reading (growth) (E. coli W3110; LEI-801 25 µM + PMBN 32 µM): 0.1518 and 0.1502 and 0.1563 | Checkerboard well reading (growth), Average values (E. coli W3110; LEI-801 50 µM + PMBN 0 µM): 0.5341 | Checkerboard well reading (growth) (E. coli W3110; LEI-801 50 µM + PMBN 0 µM): 0.4876 and 0.5464 and 0.5682 | Checkerboard well reading (growth), Average values (E. coli W3110; LEI-801 50 µM + PMBN 0.5 µM): 0.1519 | Checkerboard well reading (growth) (E. coli W3110; LEI-801 50 µM + PMBN 0.5 µM): 0.1573 and 0.1437 and 0.1549 | Checkerboard well reading (growth), Average values (E. coli W3110; LEI-801 50 µM + PMBN 1 µM): 0.152 | Checkerboard well reading (growth) (E. coli W3110; LEI-801 50 µM + PMBN 1 µM): 0.1515 and 0.1507 and 0.1538 | Checkerboard well reading (growth), Average values (E. coli W3110; LEI-801 50 µM + PMBN 2 µM): 0.1516 | Checkerboard well reading (growth) (E. coli W3110; LEI-801 50 µM + PMBN 2 µM): 0.15 and 0.1487 and 0.1561 | Checkerboard well reading (growth), Average values (E. coli W3110; LEI-801 50 µM + PMBN 4 µM): 0.1474 | Checkerboard well reading (growth) (E. coli W3110; LEI-801 50 µM + PMBN 4 µM): 0.1453 and 0.1491 and 0.1477 | Checkerboard well reading (growth), Average values (E. coli W3110; LEI-801 50 µM + PMBN 8 µM): 0.1653 | Checkerboard well reading (growth) (E. coli W3110; LEI-801 50 µM + PMBN 8 µM): 0.1998 and 0.1452 and 0.1509 | Checkerboard well reading (growth), Average values (E. coli W3110; LEI-801 50 µM + PMBN 16 µM): 0.1513 | Checkerboard well reading (growth) (E. coli W3110; LEI-801 50 µM + PMBN 16 µM): 0.1499 and 0.152 and 0.1519 | Checkerboard well reading (growth), Average values (E. coli W3110; LEI-801 50 µM + PMBN 32 µM): 0.1507 | Checkerboard well reading (growth) (E. coli W3110; LEI-801 50 µM + PMBN 32 µM): 0.1485 and 0.1492 and 0.1546 | MIC E. coli + 8 μM PMBN (E. coli W3110; LPS disruption (pharmacological)): 6.25 µM | synergy with PMBN (E. coli W3110; checkerboard): potentiates; also recorded: Clear synergy | MSC (E. coli W3110; checkerboard with PMBN, E. coli W3110): 6.25 µM | MTT data (raw readout) (HEK293T; 0.023 uM, experiment n = 1, technical triplicates, listed as LEI-801 (99)): 1.090 and 1.041 and 1.057 | MTT data (raw readout) (HEK293T; 0.023 uM, experiment n = 2, technical triplicates, listed as LEI-801 (99)): 0.858 and 0.977 and 0.938 | MTT data (raw readout) (HEK293T; 0.068 uM, experiment n = 1, technical triplicates, listed as LEI-801 (99)): 1.154 and 1.082 and 1.072 | MTT data (raw readout) (HEK293T; 0.068 uM, experiment n = 2, technical triplicates, listed as LEI-801 (99)): 1.027 and 1.034 and 1.015 | MTT data (raw readout) (HEK293T; 0.21 uM, experiment n = 1, technical triplicates, listed as LEI-801 (99)): 1.127 and 1.121 and 1.094 | MTT data (raw readout) (HEK293T; 0.21 uM, experiment n = 2, technical triplicates, listed as LEI-801 (99)): 0.913 and 0.892 and 0.944 | MTT data (raw readout) (HEK293T; 0.62 uM, experiment n = 1, technical triplicates, listed as LEI-801 (99)): 1.141 and 1.092 and 0.930 | MTT data (raw readout) (HEK293T; 0.62 uM, experiment n = 2, technical triplicates, listed as LEI-801 (99)): 1.083 and 0.946 and 1.064 | MTT data (raw readout) (HEK293T; 1.85 uM, experiment n = 1, technical triplicates, listed as LEI-801 (99)): 1.167 and 1.005 and 0.915 | MTT data (raw readout) (HEK293T; 5.6 uM, experiment n = 1, technical triplicates, listed as LEI-801 (99)): 0.937 and 1.019 and 1.040 | MTT data (raw readout) (HEK293T; 5.6 uM, experiment n = 2, technical triplicates, listed as LEI-801 (99)): 1.075 and 0.764 and 0.931 | MTT data (raw readout) (HEK293T; 16.7 uM, experiment n = 1, technical triplicates, listed as LEI-801 (99)): 0.838 and 0.818 and 0.874 | MTT data (raw readout) (HEK293T; 16.7 uM, experiment n = 2, technical triplicates, listed as LEI-801 (99)): 0.745 and 0.746 and 0.735 | MTT data (raw readout) (HEK293T; 50 uM, experiment n = 1, technical triplicates, listed as LEI-801 (99)): 0.494 and 0.473 and 0.487 | MTT data (raw readout) (HEK293T; 50 uM, experiment n = 2, technical triplicates, listed as LEI-801 (99)): 0.506 and 0.491 and 0.495 | IC50 (HEK293T; Homo sapiens, HEK-293T): 51 µM | IC50 (HEK293T; listed as LEI-801 (99)): > 50 µM | MTT data (raw readout) (HepG2; HepG2, 0.023 uM, experiment n = 1, technical triplicates, listed as LEI-801 (99)): 0.358 and 0.291 and 0.289 | MTT data (raw readout) (HepG2; HepG2, 0.023 uM, experiment n = 2, technical triplicates, listed as LEI-801 (99)): 0.296 and 0.284 and 0.274 | MTT data (raw readout) (HepG2; HepG2, 0.068 uM, experiment n = 1, technical triplicates, listed as LEI-801 (99)): 0.356 and 0.307 and 0.313 | MTT data (raw readout) (HepG2; HepG2, 0.068 uM, experiment n = 2, technical triplicates, listed as LEI-801 (99)): 0.301 and 0.287 and 0.260 | MTT data (raw readout) (HepG2; HepG2, 0.21 uM, experiment n = 1, technical triplicates, listed as LEI-801 (99)): 0.330 and 0.315 and 0.323 | MTT data (raw readout) (HepG2; HepG2, 0.21 uM, experiment n = 2, technical triplicates, listed as LEI-801 (99)): 0.350 and 0.289 and 0.265 | MTT data (raw readout) (HepG2; HepG2, 0.62 uM, experiment n = 1, technical triplicates, listed as LEI-801 (99)): 0.417 and 0.319 and 0.320 | MTT data (raw readout) (HepG2; HepG2, 0.62 uM, experiment n = 2, technical triplicates, listed as LEI-801 (99)): 0.301 and 0.282 and 0.253 | MTT data (raw readout) (HepG2; HepG2, 1.85 uM, experiment n = 1, technical triplicates, listed as LEI-801 (99)): 0.361 and 0.335 and 0.354 | MTT data (raw readout) (HepG2; HepG2, 1.85 uM, experiment n = 2, technical triplicates, listed as LEI-801 (99)): 0.263 and 0.269 and 0.244 | MTT data (raw readout) (HepG2; HepG2, 5.6 uM, experiment n = 1, technical triplicates, listed as LEI-801 (99)): 0.370 and 0.351 and 0.360 | MTT data (raw readout) (HepG2; HepG2, 5.6 uM, experiment n = 2, technical triplicates, listed as LEI-801 (99)): 0.293 and 0.267 and 0.296 | MTT data (raw readout) (HepG2; HepG2, 16.7 uM, experiment n = 1, technical triplicates, listed as LEI-801 (99)): 0.376 and 0.357 and 0.431 | MTT data (raw readout) (HepG2; HepG2, 16.7 uM, experiment n = 2, technical triplicates, listed as LEI-801 (99)): 0.300 and 0.252 and 0.259 | MTT data (raw readout) (HepG2; HepG2, 50 uM, experiment n = 1, technical triplicates, listed as LEI-801 (99)): 0.327 and 0.318 and 0.307 | MTT data (raw readout) (HepG2; HepG2, 50 uM, experiment n = 2, technical triplicates, listed as LEI-801 (99)): 0.232 and 0.220 and 0.225 | IC50 (HepG2; Homo sapiens, HepG2, 24 h): > 100 µM | IC50 (HepG2; listed as LEI-801 (99)): > 50 µM
